Experimental data published in paper PMC10568017, “A quest for the stereo-electronic requirements for selective agonism for the neurotrophin receptors TrkA and TrkB in 17-spirocyclic-dehydroepiandrosterone derivatives” (Frontiers in Molecular Neuroscience, 2023).

What was measured:
TrkB = target: T1, TrkB (Mus musculus, UniProt P15209); assay: TrkB phosphorylation assay in primary astrocytes (Western blot); format: cell-based; conditions: compound 1 μM, 20 min, after 6 h serum starvation, BDNF 500 ng/mL as control
T1 construct: primary cortical astrocytes from 2-day-old mice (as a natively TrkB-expressing neuronal population); endogenous in cells; host or cells: primary cortical astrocytes from C57B/6 mouse pups (P2)
Protocol: We tested compounds on three cellular systems, primary cortical astrocytes from 2-day-old mice (as a natively TrkB-expressing neuronal population), and NIH-3T3 fibroblasts stable transfected with TrkB and NIH-3T3 naïve cells. Cells were grown with high-glucose DMEM medium supplemented with 10% fetal bovine serum (FBS), 100 μg/mL streptomycin, and 100 units/mL penicillin at 37°C in a humidified 5% CO2 atmosphere. Phosphorylation results presented here are in primary astrocytes, and cell toxicity assay results are in NIH-3T3 stable transfected cells with TrkB.
Cells were plated in 12 well plates, at a density of 100,000 cells per well, with 6 h of serum deprivation carried out on the following day. To assess the effect of compounds on TrkB phosphorylation, 20-min treatments were applied, using either BDNF at 500 ng/mL (Peprotech 450-02) (positive control) or compounds at 1 μM.
Cell lysis for 10 min was carried out on ice using the Pierce IP Lysis Buffer by Thermo Scientific and a phospho-protease inhibitor cocktail by Millipore. After adding loading buffer (5 × Laemni), 25 μg from each protein sample were incubated for 5 min at 95°C and subjected to SDS-PAGE. Proteins were transferred to a nitrocellulose membrane at 350 mA for 2 h. Membrane blocking was performed using 5% bovine serum albumin (BSA) at room temperature for 1 h, before adding the primary antibodies to the blocking solution at 4°C overnight. HRP-conjugated secondary antibodies were used for the detection of chemiluminescence with ECL solution. Primary antibodies: Phospho-TrkB (Tyr816) Millipore # ABN1381, and Anti-TrkB Abcam #ab33655.
Mixed glial cultures were isolated from the cortex of C57B/6 pups at post-natal day 2 (P2). Cells were plated in a medium containing high-glucose DMEM, 200 U/mL penicillin, 200 μg/mL streptomycin, and 10% fetal bovine serum (FBS). When cells reach 100% confluency (7–8 days), the anti-mitotic agent Ara-C was added in the media at a final concentration of 10 μM, for 3 to 4 days to target the highly proliferative microglial cells. Ara-C was removed, and primary astrocytes (97% purity) were cultured at 5% CO2 and 37°C.
Cells were plated at 70–80% confluency. The next day, they were deprived of serum for 6 h and subsequently treated with 500 ng/mL BDNF or 1 μM of compounds for 20 min. Cells were then lysed in Pierce™ IP Lysis Buffer (87788, Thermo Fischer Scientific, Rockford, USA), containing proteases (539138, Calbiochem, Darmstadt, Germany), and phosphatase inhibitors (524629, Calbiochem, Darmstadt, Germany). Lysates were then suspended in an SDS loading buffer and subjected to Western blot against phosphorylated TrkB (1:1,000, ABN1381, Sigma-Aldrich, St. Louis, MO, USA) and total TrkB (1:1,000, 07-225-I, Sigma-Aldrich, St. Louis, MO, USA).

[1] = Metabolic stability in pooled human liver microsomes; format: in vitro ADME; conditions: 1 μM
Summary of the method: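 Test compounds at 1 µM incubated in triplicate with pooled human liver microsomes (0.5 mg/mL) and ~1 mM NADPH at 37 °C, stopped after 60 min. Parent loss classed very slow (<5%) to very fast (>80%); metabolism rated high, moderate or low by t1/2 cut-offs of 30 and 60 min.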

T1 sequence (P15209 32-821): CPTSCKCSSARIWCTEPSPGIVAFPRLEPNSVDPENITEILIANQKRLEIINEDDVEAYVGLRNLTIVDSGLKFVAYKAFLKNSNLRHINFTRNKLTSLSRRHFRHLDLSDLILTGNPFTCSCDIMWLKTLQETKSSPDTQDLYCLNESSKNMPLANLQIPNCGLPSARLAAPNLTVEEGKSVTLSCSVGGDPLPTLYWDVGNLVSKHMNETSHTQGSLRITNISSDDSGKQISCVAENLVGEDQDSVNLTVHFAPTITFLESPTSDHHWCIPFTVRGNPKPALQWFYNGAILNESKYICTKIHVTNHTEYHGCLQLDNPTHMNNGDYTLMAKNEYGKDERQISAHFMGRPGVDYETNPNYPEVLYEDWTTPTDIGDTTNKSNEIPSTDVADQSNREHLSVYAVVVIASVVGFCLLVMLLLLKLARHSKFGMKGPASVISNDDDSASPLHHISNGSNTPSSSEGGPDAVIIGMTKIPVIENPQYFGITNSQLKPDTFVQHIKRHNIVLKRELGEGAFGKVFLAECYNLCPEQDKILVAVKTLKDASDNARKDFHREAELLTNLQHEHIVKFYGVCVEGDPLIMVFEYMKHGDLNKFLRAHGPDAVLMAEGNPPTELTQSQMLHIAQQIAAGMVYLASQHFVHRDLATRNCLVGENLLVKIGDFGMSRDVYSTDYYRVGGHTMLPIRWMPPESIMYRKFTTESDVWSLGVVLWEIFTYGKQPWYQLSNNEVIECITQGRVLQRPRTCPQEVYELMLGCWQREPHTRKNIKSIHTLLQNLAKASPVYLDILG

In the case of `C[C@]12CC[C@H](O)CC1=CC[C@@H]1[C@@H]2CC[C@@]2(C)[C@H]1CC[C@@]21CC=C(Cn2cc(Cc3ccccc3)nn2)CO1` [ENT-A055, (3S,17R)-5′-[(4-benzyl-1H-1,2,3-triazol-1-yl)methyl]-3′,6′-dihydrospiro[5-androstene-17,2′-pyran]-3-ol], the “phosphorylation levels of the TrkB receptor” value (TrkB) is reported as “successfully increased phosphorylation levels of the TrkB receptor compared to the untreated control”, the “residual of time zero” value ([1]; pooled human liver microsomes 0.5 mg/mL, t = 60 min, NADPH) is reported as greater than 95% and the “parent structure loss (depletion) class” value ([1]; pooled human liver microsomes, 60 min) is reported as “very slow (very slow (<5%))”.
